Data set [1] deals with MCF-7 breast cancer cell line. Briefly: Tetrazolium dye proliferation (WST-1) assay in MCF-7 cells. Conditions: 5 days incubation. It is filed as cell-based. As for the experimental part:
(§1) Determination of the ability of compound of formula (I) and combinations between compound of formula (I) and certain therapeutic compounds described herein to inhibit the proliferation of target cells was assayed in vitro against breast tumour cells.
(§2) MCF-7 cells were purchased from ATCC. PNT1A cells were purchased from ECACC. The cells were grown in a subconfluent condition to maintain a logarithmic growth phase. The cells were dislodged for passage using trypsin-EDTA.
(§3) The proliferation of the cell lines was evaluated by using the commercial WST-1 proliferation measurement reagent. Cells from exponentially growing cultures were plated on the 96 well plates at the appropriate seeding density in the optimal medium to give logarithmic growth over the course of the assay. […] Following incubation the absorbance at a wavelength of 450 nm was measured from each well using a multilabel counter. The absorbance at wavelength 450 nm correlates linearly to number of viable cells in the well.
(§4) The means and standard deviations for parallel samples were calculated and plotted as a graph.
(§5) The antiproliferative activity of compound of formula (I) was evaluated in vitro using tetrazolium dye proliferation assay in different cell lines: MCF-7 (breast cancer cell line, derived from pleura fluid) and PNT1A (normal prostate cell line, SV40 immortalized).

The subject of a further data set is pancreatic cancer cells. Briefly: Effect on other cancer cells: pancreatic. It is filed as cell-based.
For data set [2], the system named is L1210 leukemia cultured cells. Conditions: prior art (Kato et al 1986; Takamura et al 1989); cited from earlier work.
The test system of a further data set is prostate cancer cells. The data set is described as follows: Effect on other cancer cells: prostate. The format is cell-based.
The test system of the next data set is Ehrlich ascites tumour. Conditions: prior art (Kato et al 1986; Takamura et al 1989); cited from earlier work.
Another data set relates to HL-60 cells. Conditions: prior art (Meisel et al. 1998; Mlejnek et al. 2005); cited from earlier work.
The subject of data set [3] is PNT1A immortalized normal prostate cell line. The data set is described as follows: Tetrazolium dye proliferation (WST-1) assay in PNT1A cells. Conditions: Homo sapiens, 120 h, compared with 0.1 % DMSO vehicle control group, 5 days incubation, read-out: proliferation inhibitory effect. The format is cell-based. As for the experimental part:
as §1, §2, §3, §4, §5
(In general: Tetrazolium assays rely on reduction of a dye to a coloured formazan, in cell work by metabolically active cells.)

Data set [4] relates to malignant trophoblastic cell lines. Conditions: prior art (Trewyn et al. 1979); cited from earlier work.

Data on one compound can be found in patent EP2711008A1, “N6,N6-dimethyladenosine for use in treating or preventing primary and metastatic breast cancer” (priority 2012, dated 2014).

For `CN(C)c1ncnc2c1ncn2[C@@H]1O[C@H](CO)[C@@H](O)[C@H]1O` [Compound I, N6,N6-Dimethyladenosine], the inhibition at 1 µM is 91.6 ± 2.1% in data set [1] (Homo sapiens, MCF7, 120 h, compared with 0.1 % DMSO vehicle control group, 1 microM, read-out: proliferation inhibitory effect) and 17.4 ± 5.3% in data set [3]. The “proliferation inhibitory effect compared with Gemcitabine” value in data set [1] (relative to Gemcitabine (= 0)) is given as 62.6±9.4%. Further, the “effect on pancreatic cancer cells” value in the data set with pancreatic cancer cells is given as “no effect was detected”. In data set [2], the “antitumour activity in L1210 leukemia cultured cells” value was “inactive”. Besides, the “effect on prostate cancer cells” value in the data set on prostate cancer cells is listed as “no effect was detected”. Besides, the “antitumour activity against Ehrlich ascites tumour” value with Ehrlich ascites tumour was “inactive”. Moreover, the “apoptosis induction on HL-60 cells” value with HL-60 cells was “apoptotic inductor”. Further, the “cytotoxicity to malignant trophoblastic cell lines” value in data set [4] was “cytotoxic”.
